Results on five molecules are retold here after patent US20040248913A1, “(Pyridinyl and pyrimidyl) trienoic acid derivatives as retinoid x receptor modulators” (priority 2001, published 2004).

The target of one experiment is T1, RXRα homodimer (Homo sapiens, UniProt P19793).
T1 sequence (P19793 1-462): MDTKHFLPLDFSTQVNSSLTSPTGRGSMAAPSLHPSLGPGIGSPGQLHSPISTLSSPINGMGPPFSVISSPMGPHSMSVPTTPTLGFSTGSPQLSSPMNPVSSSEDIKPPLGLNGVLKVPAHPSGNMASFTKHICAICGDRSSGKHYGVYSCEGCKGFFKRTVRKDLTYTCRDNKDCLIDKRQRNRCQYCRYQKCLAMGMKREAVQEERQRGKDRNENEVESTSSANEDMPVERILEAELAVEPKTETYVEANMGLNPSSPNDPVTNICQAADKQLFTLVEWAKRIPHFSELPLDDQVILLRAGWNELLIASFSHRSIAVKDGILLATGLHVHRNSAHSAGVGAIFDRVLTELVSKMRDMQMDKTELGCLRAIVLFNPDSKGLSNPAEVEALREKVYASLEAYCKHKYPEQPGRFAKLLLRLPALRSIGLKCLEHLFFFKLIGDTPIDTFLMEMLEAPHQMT
Briefly: RXR homodimer co-transfection assay in CV-1 cells (CRBPIITKLUC reporter). Type of experiment: cell-based. Particulars: for Agonist Efficacy (%): mean of n > 2; for Antagonist Efficacy (%) / IC50: RXRα homodimer; for Antagonist Efficacy (%): % of maximal inhibition in presence of fixed concentration (3.2×10^−8 M) of known RXR agonist; for IC50: in presence of known RXR agonist, read-out: Antagonist IC50; for Activity in the context of RXR homodimers (in words): summary of Table 1. From the text:
This assay is described in further detail in U.S. Pat. Nos. 4,981,784 and 5,071,773, the disclosures of which are incorporated herein by reference.
The co-transfection assay provides a method for identifying functional agonists which mimic, or antagonists which inhibit, the effect of native hormones, and quantifying their activity for responsive IR proteins. In this regard, the co-transfection assay mimics an in vivo system in the laboratory. Importantly, activity in the co-transfection assay correlates very well with known in vivo activity, such that the co-transfection assay functions as a qualitative and quantitative predictor of a tested compounds in vivo pharmacology. See, e.g., T. Berger et al. 41 J. Steroid Biochem. Molec. Biol. 773 (1992), the disclosure of which is herein incorporated by reference.
(§1) In the co-transfection assay, cloned cDNA for one or more IRs (e.g., human RARα, RXRα, or PPARγ), alone or in combination (i.e. for heterodimer assays) under the control of a constitutive promoter (e.g., the SV 40, RSV or CMV promoter) is introduced by transfection (a procedure to introduce exogenous genes into cells) into a background cell substantially devoid of endogenous IRs. These introduced gene(s) direct the recipient cells to make the IR protein(s) of interest. A further gene is also introduced (co-transfected) into the same cells in conjunction with the IR gene(s). This further gene, comprising the cDNA for a reporter protein, such as firefly luciferase (LUC), controlled by an appropriate hormone responsive promoter containing a hormone response element (HRE). This reporter plasmid functions as a reporter for the transcriptional-modulating activity of the target IR(s). Thus, the reporter acts as a surrogate for the products (mRNA then protein) normally expressed by a gene under control of the target receptor(s) and their native hormone(s).
Exposing the transfected cells to an agonist ligand compound increases reporter activity in the transfected cells. This activity can be conveniently measured, e.g., by increasing luciferase production and enzymatic activity, which reflects compound-dependent, IR-mediated increases in reporter transcription. To detect antagonists, the co-transfection assay is carried out in the presence of a constant concentration of an known agonist to the target IR (e.g., 4-[(3,5,5,8,8-Pentamethyl-5,6,7,8-tetrahydro-2-naphthyl)ethenyl]benzoic acid (Ligand Pharmaceuticals, Inc.) for RXRα) known to induce a defined reporter signal. Increasing concentrations of an antagonist will decrease the reporter signal (e.g., luciferase production). The co-transfection assay is therefore useful to detect both agonists and antagonists of specific IRs. Furthermore, it determines not only whether a compound interacts with a particular IR, but whether this interaction mimics (agonizes) or blocks (antagonizes) the effects of native or synthetic regulatory molecules on target gene expression, as well as the specificity and strength of this interaction.
The receptor expression plsmid was cotransfected along with a reporter plasmid at 50 ng/well, the internal control plasmid pRS-β-Gal at 50 ng/well and filler DNA, pGEM, at 90 ng/well.

In experiment [1] the test system is RXRα:RAR heterodimer. The experiment in a line: RXR:RAR heterodimer cotransfection assay in CV-1 cells. It counts as cell-based, human. Particulars: for Synergy Efficacy (%): maximal response in presence of 3 nM TTNPB relative to response to TTNPB alone; for Agonist Efficacy (%): maximal response relative to response of ATRA.
Excerpt: as §1
(§2) Compounds of the present invention were also tested for the ability to synergize with an RAR or PPARγ agonist in the context of an RXR heterodimer. […] Efficacy of the compounds of the present invention in the agonist and synergy assays was calculated as the maximum response obtained over the range of the dose response curve relative to the maximum response obtained by the reference agonist. Antagonist efficacy was determined as a function (%) of maximal inhibition.
(§3) RAR suppresses RXR ligand binding and transactivation of typical RXR agonists via allosteric interactions. […] However, when RAR is occupied, typical RXR agonists activate the heterodimer. […] To examine the effects of the compounds of the present invention on the transcriptional properties of the RXR:RAR heterodimer, a heterodimer cotransfection assay as described above was employed.

Experiment [2] deals with T2, RXRα:RAR heterodimer (Homo sapiens, UniProt P19793).
T2 construct: expressed in transfected cells; host or cells: CV-1 cells
T2 sequence (P19793 1-462): T1 sequence (P19793 1-462)
The experiment is described as above. It counts as cell-based. Particulars: for RXR:RAR antagonist activity (in words): antagonist assay; for Antagonist Efficacy (%): relative to maximal repression (100%) in presence of 10 nM TTNPB.
Excerpt: as §1, §2, §3

[3] abbreviates: RXRα homodimer cotransfection, CV-1 cells.
The mark [4] stands for this setting: not calculated if efficacy <10%.

A word on the IC50: it is the midpoint of a concentration-inhibition curve. The term EC50 denotes the concentration that produces a half-maximal response.

For the molecule `CCCCOc1c(\C(C)=C/C=C/C(C)=C/C(=O)O)cc(C(C)C)nc1C(C)C` [Example 1, 7-(3-Butoxy-2,6-diisopropyl-pyridin-4-yl)-3-methyl-octa-2(E),4(E),6(Z)-trienoic Acid], the “Agonist Efficacy (%)” value at RXRα homodimer (setting [3]) amounted to 1%. Also, on RXRα homodimer, the “Antagonist Efficacy (%)” value is 93%; the “Activity in the context of RXR homodimers (in words)” value (shortened to “Activity in the context”) was “highly efficacious and potent antagonist activity with little or no agonists activity”. Further, the IC50 on RXRα homodimer (setting [4]) was 3.5 nM. Moreover, in the experiment with RXRα:RAR heterodimer [1], the “RXR:RAR agonist activity / transactivation alone (in words)” value is given as “not active”, the “RXR:RAR agonist activity in combination with TTNPB (in words)” value (shortened to “RXR:RAR agonist activity in combination”) was “not active”, the “Synergy Efficacy (%)” value came out at 7% and the “Agonist Efficacy (%)” value came to 1%. Also, at RXRα:RAR heterodimer [2], the “RXR:RAR antagonist activity (in words)” value was “significant RXR:RAR antagonist activity” and the “Antagonist Efficacy (%)” value is on record as 93%.
Consider `CCCOc1c(\C(C)=C/C=C/C(C)=C/C(=O)O)cc(C(C)C)nc1C(C)C` [Example 2, 7-(2,6-Diisopropyl-3-propoxy-pyridin-4-yl)-3-methyl-octa-2(E),4(E),6(Z)-trienoic Acid], for which the “Agonist Efficacy (%)” value at RXRα homodimer (setting [3]) stood at 4%. For the same molecule, on RXRα homodimer, the “Antagonist Efficacy (%)” value was 88%; the “Activity in the context” value was “highly efficacious and potent antagonist activity with little or no agonists activity”. In addition, the IC50 at RXRα homodimer (setting [4]) is 4.1 nM. Besides, in the experiment with RXRα:RAR heterodimer [1], the “RXR:RAR agonist activity / transactivation alone (in words)” value is “not active”, the “RXR:RAR agonist activity in combination” value is “not active”, the “Synergy Efficacy (%)” value is 6% and the “Agonist Efficacy (%)” value is reported as 2%. Besides, at RXRα:RAR heterodimer [2], the “RXR:RAR antagonist activity (in words)” value is on record as “significant RXR:RAR antagonist activity” and the “Antagonist Efficacy (%)” value was determined as 88%.
Take `CCOc1c(\C(C)=C/C=C/C(C)=C/C(=O)O)cc(C(C)C)nc1C(C)C` [Example 3, 7-(2,6-Diisopropyl-3-ethoxy-pyridin-4-yl)-3-methyl-octa-2(E),4(E),6(Z)-trienoic acid]: at RXRα homodimer (setting [3]), the “Agonist Efficacy (%)” value turned out to be 51%. Further, the EC50 at RXRα homodimer (RXRα homodimer cotransfection, CV-1 cells, not calculated if efficacy <10%, read-out: Agonist EC50) is 2 nM. Also, on RXRα homodimer, the “Antagonist Efficacy (%)” value was 3% and the “Activity in the context” value is reported as “agonist activity”. In the experiment on RXRα:RAR heterodimer [1], the “RXR:RAR agonist activity in combination” value was “strong agonist activity”, the “Synergy Efficacy (%)” value was found to be 73% and the “Agonist Efficacy (%)” value was 6%.
With `C/C(=C/C=C/C(C)=C/C(=O)O)c1cc(C(C)C)nc(C(C)C)c1OCC(F)F` [Example 4, 7-[3-(2,2-Difluoro-ethoxy)-2,6-diisopropyl-pyridin-4-yl]-3-methyl-octa-2(E),4(E),6(Z)-trienoic acid], the “Agonist Efficacy (%)” value on RXRα homodimer (setting [3]) came to 9%. In addition, at RXRα homodimer, the “Antagonist Efficacy (%)” value is 76%; the “Activity in the context” value is “highly efficacious and potent antagonist activity with little or no agonists activity”. In addition, the IC50 at RXRα homodimer (setting [4]) was 8.7 nM. Moreover, in the experiment with RXRα:RAR heterodimer [1], the “RXR:RAR agonist activity in combination” value is “weak to moderate agonist activity”, the “Synergy Efficacy (%)” value is on record as 37% and the “Agonist Efficacy (%)” value turned out to be 9%. Also, the “Antagonist Efficacy (%)” value on RXRα:RAR heterodimer [2] amounted to 76%.
Turning to `C/C(=C/C=C/C(C)=C/C(=O)O)c1cc(C(C)C)nc(C(C)C)c1OCC(F)(F)F` [Example 5, 7-[2,6-Diisopropyl-3-(2,2,2-trifluoro-ethoxy)-pyridin-4-yl]-3-methyl-octa-2(E),4(E),6(Z)-trienoic acid], at RXRα homodimer (setting [3]), the “Agonist Efficacy (%)” value was 3%. Besides, at RXRα homodimer, the “Antagonist Efficacy (%)” value is reported as 85%; the “Activity in the context” value was “highly efficacious and potent antagonist activity with little or no agonists activity”. The IC50 on RXRα homodimer (setting [4]) is 8 nM. In the experiment on RXRα:RAR heterodimer [1], the “RXR:RAR agonist activity in combination” value was “weak to moderate agonist activity”, the “Synergy Efficacy (%)” value came out at 18% and the “Agonist Efficacy (%)” value came to 3%. Besides, at RXRα:RAR heterodimer [2], the “Antagonist Efficacy (%)” value is 85%.
